Where two headings read alike, the source gives them in different places.
Legend:
HeLa H2B-RFP cells = assay: Exogenous cyclin-GFP expression, live-cell imaging and quantitation; format: cell-based, human; details: Fig 5D; GFP at 60 min vs onset of mitosis; 20 μM proTAME or proAAME, 150 nM nocodazole
Description: HeLa H2B-RFP cells were transduced with cyclin B1-GFP or cyclin A2-GFP adenovirus for 40 h. Phenol Red-Free DMEM (Mediatech) supplemented with 10% FBS and 1:100 Penicillin-Streptomycin-Glutamine (Mediatech) was used as imaging medium. 20 μM proAAME, 20 μM proTAME or 150 nM nocodazole was added 45 min prior to the start of imaging. Live cell imaging was set up as described above except that the cells were plated in an 8-well chambered coverglasses (NUNC Lab-tek 155411). Four positions per treatment group were imaged with DIC transmitted light, red fluorescence, and green fluorescence (Semrock GFP/HcRed “Pinkel” filter set) at 12 min intervals for 24 h. Stacks of red and green fluorescence were merged, saved as AVI video files and analyzed using ImageJ. For quantitation, the first GFP-positive cells that undergo mitosis in three separate movies were chosen, giving at least 30 cells quantitated for each treatment group. Mean intensity values for the green channel were collected for a cytoplasmic region of a cell upon mitotic entry, mitotic exit, or after 1 h of mitotic arrest. At the same time points, background mean green intensity was determined and individually subtracted from the cytoplasmic mean intensity. This background corrected mean intensity value was then used to determine the percentage of the original GFP signal remaining at the completion of division (for the control cells) or after 1 h of mitotic arrest (for the nocodazole and proTAME treated cells). The average values for all quantitated cells were plotted with the error bars representing standard error of the mean.

HeLa H2B-GFP cells = assay: Live cell imaging of mitotic duration and cell fate; format: cell-based, human; details: for Response of arrested cells to roscovitine: 100 μM roscovitine at 12 h after release; for Mitotic phenotype: synchronized HeLa H2B-GFP
Description: Detailed siRNA transfection and drug treatment schemes are described in supplemental experimental procedures. HeLa H2B-GFP cells were plated in DMEM with 10% FBS at 20% confluence. […] Live cell imaging was performed at 12 minute intervals on a Nikon TE2000E PFS inverted microscope fitted with an incubation chamber maintained at 37° C. and supplied with 5% CO2. Cell division was tracked by manual inspection of movies, and mitotic duration was measured as the time between the first frame of chromosome condensation and the frame of chromosome segregation (anaphase), decondensation (mitotic exit without anaphase) or cell death (chromosomes shrinking to a small bright dot).
The imaging plate was mounted onto a motorized stage (Prior ProScan II) on a Nikon TE2000E PFS inverted microscope fitted with an incubation chamber maintained at 37° C. and supplied with 5% CO2. A 20× Plan Apo 0.75 NA or 40× Plan Fluor 0.75 NA objective lens was used as indicated and images were collected with 2×2 binning. […] TIFF files of each image were exported from Elements and used to build stacks and Quicktime movies with Metamorph imaging software (Molecular Devices). For manual analysis, mitotic duration is counted as the time between the first frame of chromosome condensation and the frame of chromosome segregation (anaphase) or decondensation (mitotic exit in the presence of nocodazole) or cell death (chromosomes shrinking to a small bright dot).
HeLa H2B-GFP cells were plated in a 24-well plate in DMEM 10% FBS at 20% confluence one day prior to experiment and synchronized by double thymidine block as described above. […] Live cell imaging was set up as described above.
HeLa H2B-GFP cells were plated in a 24-well plate in DMEM+10% FBS at 20% confluence one day prior to the experiment and synchronized by double thymidine block as described above. The cells were released from the first thymidine block into 200 μl OptiMem without FBS. Transfection was performed immediately after the first thymidine release. […] The two mixtures were left at room temperature for 5 min before being mixed together and incubated for additional 20 min and then added to the cells to a final volume of 250 μl. 4 h after transfection, 250 μl of DMEM+20% FBS were added to cells.
HeLa H2B-GFP cells were plated in glass-bottom 24-well plates at 20% confluence one day prior to the experiment and synchronized by double thymidine block as described above. […] Cells were treated with 100 nM Hesperadin or DMSO 8 h after release from the second thymidine block and live cell imaging was set up as described above.
HeLa H2B-GFP cells were plated in a 24-well plate in DMEM+10% FBS at 20% confluence one day prior to experiment and synchronized by double thymidine block as synchronized above. […] Live cell imaging was set up as described above.
HeLa H2B-GFP cells were plated in a 24-well plate in DMEM+10% FBS at 20% confluence one day prior to experiment and synchronized by double thymidine block as described above. […] Untreated cells were used as the control. Live cell imaging was set up as described above. […] Alternatively, at 10 h after release from the second block, 10 μM MG132 with or without 25 μg/ml cycloheximide was added to the cells. […] Live cell imaging was set up as described above.
HeLa H2B-GFP cells were plated in a 24-well plate in DMEM+10% FBS at 20% confluence one day prior to experiment and synchronized by double thymidine block as described above. Mad2 siRNA transfection was performed as described above. At 10 h after release from the second block, 10 μM MG132 with or without 25 μg/ml cycloheximide was added to the cells. Live cell imaging was set up as described above. Manual analysis was focused only on cells that entered mitosis after MG132 addition.
Live cell imaging experiments. […] Nocodazole, taxol, proTAME, cyclinal and hesperadin were added to cells at 8 h after release. MG132 was added to cells at 10 h after release to allow mitotic entry.

[1] = Example 3, Mad2 knockdown, 12 μM proTAME, 300 nM nocodazole
[2] = Example 3, without Mad2 knockdown, 12 μM proTAME, 300 nM nocodazole
[3] = Fig 6A, MAD2 siRNA, 12 μM proTAME, 300 nM nocodazole
[4] = Fig 6A, control siRNA, 12 μM proTAME, 300 nM nocodazole
[5] = Fig 6C, compounds 8 h after release, 12 μM proTAME, 300 nM nocodazole, 150 nM taxol, 100 nM hesperadin
[6] = Fig 8A, 12 μM proTAME, 300 nM nocodazole or 150 nM taxol, ± 25 μg/ml cycloheximide 4 h later
[7] = double-thymidine synchronized cells, Mad2 knockdown
[8] = double-thymidine synchronized cells, without Mad2 knockdown
[9] = Fig 5A, synchronized HeLa cells, 780 nM
[10] = Fig 5A, synchronized HeLa cells, 3 μM
[11] = Fig 5A, synchronized HeLa cells, 12 μM
[12] = Fig 5B, control siRNA, low proTAME concentration (4 μM)
[13] = Fig 5B, partial Cdc20 knockdown (Cdc20 siRNA), proTAME 4 μM
[14] = Fig S5G, after washout from nocodazole-induced arrest, release in proTAME 12 μM ± hesperadin 100 nM

## COC(=O)Nc1nc2ccc(C(=O)c3cccs3)cc2[nH]1 [Nocodazole, reference compound]
HeLa H2B-RFP cells
  Average cyclin A2-GFP (fraction remaining): 0.28 fraction remaining
  Average cyclin B1-GFP (fraction remaining): 0.87 fraction remaining
  Median cyclin A2-GFP (fraction remaining): 0.28 fraction remaining
  Median cyclin B1-GFP (fraction remaining): 0.83 fraction remaining
HeLa H2B-GFP cells; 10 nM nocodazole
  Prolongation of mitosis: 20 min
HeLa H2B-GFP cells; 10 nM, SAC-proficient cells
  Extension of mitotic duration: 20 min
HeLa H2B-GFP cells
  Response of arrested cells to roscovitine: induced instantaneous mitotic exit
HeLa H2B-GFP cells; [1]
  Median mitotic duration: 30 min
HeLa H2B-GFP cells; [2]
  Median mitotic duration: 1230 min
HeLa H2B-GFP cells; [3]
  Average mitotic duration: 98.2 min
  Median mitotic duration: 36 min
HeLa H2B-GFP cells; [4]
  Average mitotic duration: 1680.1 min
  Median mitotic duration: 1812 min
HeLa H2B-GFP cells; [5]
  Average mitotic duration: 1851.8 min
  Median mitotic duration: 2094 min
HeLa H2B-GFP cells; [6]
  Average mitotic duration: 1777.0 min
  Median mitotic duration: 2160 min
HeLa H2B-GFP cells; [7]
  Duration of mitotic arrest: 0.6 h
HeLa H2B-GFP cells; [8]
  Duration of mitotic arrest: 30 h

## COC(=O)[C@H](CCCN/C(=N\C(=O)OCOC(=O)Cc1ccccc1)NC(=O)OCOC(=O)Cc1ccccc1)NS(=O)(=O)c1ccc(C)cc1 [proTAME]
HeLa H2B-RFP cells
  Average cyclin A2-GFP (fraction remaining): 0.99 fraction remaining
  Average cyclin B1-GFP (fraction remaining): 1.17 fraction remaining
  Median cyclin A2-GFP (fraction remaining): 0.95 fraction remaining
  Median cyclin B1-GFP (fraction remaining): 1.17 fraction remaining
HeLa H2B-GFP cells
  Average mitotic duration: 1512.4 min
  Median mitotic duration: 1488 min
  Response of arrested cells to roscovitine: induces rapid mitotic exit
HeLa H2B-GFP cells; 3 μM
  Mitotic duration: 5 h
HeLa H2B-GFP cells; 12 μM proTAME
  Duration of mitotic arrest: over 28 h
HeLa H2B-GFP cells; 12 μM, SAC inactivated by Mad2 depletion
  Extension of mitotic duration: 72 min
HeLa H2B-GFP cells; 12 μM, intact SAC
  Extension of mitotic duration: 1380 min
HeLa H2B-GFP cells; Cdc20 levels reduced by 50% by siRNA, 4 μM
  Mitotic duration: 19.4 h
HeLa H2B-GFP cells; Example 2, 12 μM proTAME, DIC imaging
  Duration of mitotic arrest: over 10 hours
HeLa H2B-GFP cells; Example 2, 12 (μM) proTAME, fluorescence imaging
  Duration of metaphase arrest: more than 8 hours
HeLa H2B-GFP cells; Example 2, HeLa H2B-GFP fluorescence imaging, 3 μM proTAME, proAAME control
  Mitotic duration: 2 h
HeLa H2B-GFP cells; [1]
  Median mitotic duration: 120 min
HeLa H2B-GFP cells; [2]
  Median mitotic duration: 420 min
HeLa H2B-GFP cells; [9]
  Average mitotic duration: 165.4 min
  Median mitotic duration: 156 min
HeLa H2B-GFP cells; [10]
  Average mitotic duration: 444.6 min
  Median mitotic duration: 348 min
HeLa H2B-GFP cells; [11]
  Average mitotic duration: 1640.5 min
  Median mitotic duration: 1680 min
HeLa H2B-GFP cells; [12]
  Average mitotic duration: 496.5 min
  Median mitotic duration: 288 min
HeLa H2B-GFP cells; [13]
  Average mitotic duration: 1235.3 min
  Median mitotic duration: 1170 min
HeLa H2B-GFP cells; [3]
  Average mitotic duration: 121.7 min
  Median mitotic duration: 84 min
HeLa H2B-GFP cells; [5]
  Average mitotic duration: 1329.3 min
  Median mitotic duration: 1272 min
HeLa H2B-GFP cells; [6]
  Average mitotic duration: 1052.0 min
  Median mitotic duration: 972 min
HeLa H2B-GFP cells; [14]
  Average mitotic duration: 1516.4 min
  Median mitotic duration: 1410 min
HeLa H2B-GFP cells; Mad2-knockdown cells, proTAME 12 μM, cyclinal 100 μM
  Effect on mitotic exit: only transiently delayed mitotic exit
HeLa H2B-GFP cells; Mad2 knockdown cells (12 min without proTAME)
  Median mitotic duration: 84 min
HeLa H2B-GFP cells; control-transfected cells, 4 μM
  Mitotic duration: 4.8 h
HeLa H2B-GFP cells; [7]
  Duration of mitotic arrest: 1.4 h
HeLa H2B-GFP cells; [8]
  Duration of mitotic arrest: 24.6 h
HeLa H2B-GFP cells; in the absence of Mad2
  Duration of mitotic arrest: approximately 2 hours
HeLa H2B-GFP cells; in the presence of hesperadin
  Effect on mitotic exit: only transiently delayed mitotic exit
HeLa H2B-GFP cells; 780 nM or 3 μM
  Mitotic phenotype: remained in metaphase for up to several hours, but then proceeded through a normal anaphase
HeLa H2B-GFP cells; 12 μM
  Mitotic phenotype: arrested in metaphase and subsequently died
HeLa H2B-GFP cells; synchronized, drugs 10 hrs after release, proTAME 1 μM, MG132 0.5 μM
  Median mitotic arrest: 216 min
HeLa H2B-GFP cells; synchronized, drugs 10 hrs after release, proTAME 3 μM, low-dose MG132
  Median mitotic delay/arrest: 438 min
HeLa H2B-GFP cells; unsynchronized HeLa H2B-GFP, taxol 10 nM, proTAME 3 μM, control 60 min
  Median mitotic duration: 132 min
